Where “and” joins values, the source holds several entries; their conditions need not be identical. Equal entries are not always repeated. Where two headings read alike, the source gives them in different places.
Columns and labels:
[1] = target: T1, H3R (Homo sapiens, UniProt Q9Y5N1); conditions: ref Hauwert et al., cited from earlier work
[2] = parameters: method as in Hauwert et al.; conditions: 25 μM in HBSS buffer containing 1% DMSO; ref Hauwert et al.; cited from earlier work
[3] = parameters: method as in Hauwert et al.; conditions: ref Hauwert et al., cited from earlier work
[4] = parameters: method as in Hauwert et al.; conditions: approximate, extrapolated to 20 °C; ref Hauwert et al.; cited from earlier work
[5] = UV-vis spectra of trans and PSS cis states in HBSS buffer; assay type: physicochemical; conditions: 25 μM in HBSS buffer containing 1% DMSO
Procedure: (§1) Experimental procedures – Photochemistry
UV−Vis spectra were recorded using a Thermo-scientific Evolution 201 PC spectrophotometer equipped with a thermostated cell holder set at 20 °C. Fits of UV−vis spectroscopy data were generated using Prism 10.1.0. Illumination for almost all photochemical experiments was executed using a Sutter instruments Lambda LS with a 300 W full-spectrum lamp connected to a Sutter instruments Lambda 10-3 optical filter changer equipped with 360 ± 10 nm, 434 ± 9 nm 494 ± 9 nm, or a Lambda 721 optical beam combiner system equipped with 365 ± 11 nm and 506 ± 14 nm filter. The light intensity used for the lambda 10-3 optical filter is 0.93 mW/mm2 using the 360 ± 20 nm filter, 0.79 mW/mm2 for the 434 ± 9 nm filter, 0.77 mW/mm2 for the 494 ± 9 nm filter as measured using a Thorlabs PM16−401 power meter. The light intensity used for the lambda 721 optical beam combiner is 200 mW using the 365 ± 11 nm filter and 60 mW for the 506 ± 12 nm filter. For photochemical analyses, illuminations were performed in Hellma Suprasil quartz 114QS cuvettes. For the dynamic illuminations, a 4-way cuvette holder (Avantes) was used. The left outlet of the holder is connected to an Avantes AvaLight-DH-S-BAL Deuterium lamp. The right outlet is connected through a fiber to an AvaSpec UV/Vis spectrometer. The lower outlet is connected to a Lambda 721 optical beam combiner system equipped with 365 ± 11 nm and 506 ± 14 nm filter illumination means. The upper outlet is covered with a black cap. The temperature of the solution in the cuvette (20 °C) is controlled by Q-blue Wireless Temperature Control software. […]
The typical distance […]
between light source and vial or cuvette was 2 cm.

[6] = Photostationary state area percentages by LC-MS at the isosbestic point; assay type: physicochemical; conditions: for PSScis (area %cis): after illumination of trans isomer with 365 ± 10 nm at 1 mM in DMSO for 10 min
[7] = Thermal relaxation of PSS cis states (Arrhenius extrapolation); assay type: physicochemical; conditions: approximate; HBSS buffer + 1% DMSO, extrapolated to 20 °C
Procedure: as §1
UV−Vis spectra were recorded using a Thermo-scientific Evolution 201 PC spectrophotometer equipped with a thermostated cell holder set at 20 °C. Fits of UV−vis spectroscopy data were generated using Prism 10.1.0. Illumination for almost all photochemical experiments was executed using a Sutter instruments Lambda LS with a 300 W full-spectrum lamp connected to a Sutter instruments Lambda 10-3 optical filter changer equipped with 360 ± 10 nm, 434 ± 9 nm 494 ± 9 nm, or a Lambda 721 optical beam combiner system equipped with 365 ± 11 nm and 506 ± 14 nm filter. The light intensity used for the lambda 10-3 optical filter is 0.93 mW/mm2 using the 360 ± 20 nm filter, 0.79 mW/mm2 for the 434 ± 9 nm filter, 0.77 mW/mm2 for the 494 ± 9 nm filter as measured using a Thorlabs PM16−401 power meter. The light intensity used for the lambda 721 optical beam combiner is 200 mW using the 365 ± 11 nm filter and 60 mW for the 506 ± 12 nm filter. For photochemical analyses, illuminations were performed in Hellma Suprasil quartz 114QS cuvettes. For the dynamic illuminations, a 4-way cuvette holder (Avantes) was used. The left outlet of the holder is connected to an Avantes AvaLight-DH-S-BAL Deuterium lamp. The right outlet is connected through a fiber to an AvaSpec UV/Vis spectrometer. The lower outlet is connected to a Lambda 721 optical beam combiner system equipped with 365 ± 11 nm and 506 ± 14 nm filter illumination means. The upper outlet is covered with a black cap. The temperature of the solution in the cuvette (20 °C) is controlled by Q-blue Wireless Temperature Control software.
Thermal relaxation experiments and Arrhenius extrapolations were performed according to Priimagi et al20, using a compound concentration of 25 μM in HBSS +1% DMSO and temperatures of 50, 60, and 70 °C. Illuminations for pharmacological experiments were performed in cylindrical clear glass vials with a volume of 4.5 mL. The typical distance between light source and vial or cuvette was 2 cm.

[8] = target: T1, H3R; assay: [3H]NAMH competition radioligand binding on cell homogenates overexpressing H3R; conditions: for Fold Ki shift: (high-affinity state)/(low-affinity state); for Ki: [3H]NAMH competition, n = 3
[9] = target: T1, H3R; assay: Association and dissociation radioligand binding experiments with [3H]3f; conditions: for dissociation t 1/2: t1/2 = ln 2/k off; for Kd: from k off/k on, read-out: pK d(k in) calculated kinetic affinity (converted)
Procedure: (§2) To determine non-specific
(§3) specific binding from the total binding.
(§4) intervals ranging from 0-20 minutes.
(§5) was measured as described above.
(§6) model to obtain Kd values.

[10] = target: T1, H3R; assay type: binding
Procedure: as §2, §3, §4, §5, §6

[11] = target: hH3R (Homo sapiens, UniProt Q9Y5N1); assay: Competition binding of non-labeled ligands with trans-[3H]3f on hH3R-expressing cell homogenates
[12] = target: T1, H3R; assay: Functional H3R NanoBiT-PKA (cAMP sensor) assay in transiently transfected HEK293T cells; assay type: cell-based; conditions: inhibition of forskolin-stimulated cAMP signal, agonist alone
[13] = ↑ higher affinity of PSS cis state than trans
[14] = illumination of PSS cis state with 506 ± 20 nm at 1 mM in DMSO for 10 min
[15] = ↓ lower affinity of PSS cis state than trans

T1 sequence (Q9Y5N1 whole entry): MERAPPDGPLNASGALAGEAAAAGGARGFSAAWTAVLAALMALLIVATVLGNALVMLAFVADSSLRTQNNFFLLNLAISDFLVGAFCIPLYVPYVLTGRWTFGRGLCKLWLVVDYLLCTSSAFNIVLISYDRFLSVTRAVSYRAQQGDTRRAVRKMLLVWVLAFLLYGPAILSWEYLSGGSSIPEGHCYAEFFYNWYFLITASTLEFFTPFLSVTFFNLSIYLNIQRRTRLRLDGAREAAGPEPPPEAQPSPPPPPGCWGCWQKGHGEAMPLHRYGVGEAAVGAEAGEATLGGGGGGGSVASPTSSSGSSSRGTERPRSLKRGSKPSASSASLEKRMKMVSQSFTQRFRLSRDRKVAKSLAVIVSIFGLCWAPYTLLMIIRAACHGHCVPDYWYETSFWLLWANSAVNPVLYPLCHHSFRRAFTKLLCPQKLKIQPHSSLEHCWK
hH3R, sequence (Q9Y5N1 whole entry): as above

c1ccc(/N=N/c2ccc(OCCCN3CCCCC3)cc2)cc1 [Compound 1]
pKi PSScis ± SEM ([1]; PSS cis state, [3H]NAMH competition): 8.1 ± 0.1
pKi trans ± SEM ([1]; trans isomer, [3H]NAMH competition): 7.3 ± 0.1
Fold Ki shift [1, 13]: 6.3 ↑ fold
λmax cis [2]: 432 nm
λmax trans [2]: 344 nm
PSScis (area %cis) ([3]; after illumination of trans isomer with 365 ± 10 nm): 97 area %
PSStrans (area %trans) ([3]; illumination of PSS cis state with 434 ± 20 nm): 68 area %
Half-life (thermal relaxation of PSS cis state) [4]: 264 h

c1ccc(/N=N/c2ccc(O[C@H]3C[C@H](N4CCCCC4)C3)cc2)cc1 [Compound 2]
λmax cis [5]: 425 nm
λmax trans [5]: 350 nm
PSScis (area %cis) [6]: 97 area %
PSStrans (area %trans) ([6]; illumination of PSS cis state with 434 ± 20 nm at 1 mM in DMSO for 10 min): 74 area %
Half-life (thermal relaxation of PSS cis state) [7]: 48 h
Fold Ki shift [8, 13]: 4 fold and 4.0 ↑ fold
Ki ([8]; pKi PSScis ± SEM, PSS cis state): 2.51 nM

Cc1nn(C)c(C)c1/N=N/c1ccc(O[C@H]2C[C@H](N3CCCCC3)C2)cc1 [Compound 3a]
λmax cis [5]: 439 nm
λmax trans [5]: 347 nm
PSScis (area %cis) [6]: 95 area %
PSStrans (area %trans) [6, 14]: 93 area %
Half-life (thermal relaxation of PSS cis state) [7]: 432 h
Fold Ki shift [8, 15]: 7.9 ↓ fold
fold improved Ki value of trans isomer compared to trans-2 ([8]; trans isomers): more than 10 fold

Cc1nn(C2CCCCC2)c(C)c1/N=N/c1ccc(O[C@H]2C[C@H](N3CCCCC3)C2)cc1 [Compound 3b]
λmax cis [5]: 440 nm
λmax trans [5]: 351 nm
PSScis (area %cis) [6]: 88 area %
PSStrans (area %trans) [6, 14]: 94 area %
Half-life (thermal relaxation of PSS cis state) [7]: 170 h
Fold Ki shift [8, 15]: 12.6 ↓ fold

Cc1nn(C2CCOCC2)c(C)c1/N=N/c1ccc(O[C@H]2C[C@H](N3CCCCC3)C2)cc1 [Compound 3c]
λmax cis [5]: 440 nm
λmax trans [5]: 349 nm
PSScis (area %cis) [6]: 94 area %
PSStrans (area %trans) [6, 14]: 95 area %
Half-life (thermal relaxation of PSS cis state) [7]: 600 h
Fold Ki shift [8, 15]: 20.0 ↓ fold

Cc1nn(C2CCNCC2)c(C)c1/N=N/c1ccc(O[C@H]2C[C@H](N3CCCCC3)C2)cc1 [Compound 3e]
λmax cis [5]: 434 nm
λmax trans [5]: 346 nm
PSScis (area %cis) [6]: 99 area %
PSStrans (area %trans) [6, 14]: 92 area %
Half-life (thermal relaxation of PSS cis state) [7]: 696 h
Fold Ki shift [8, 15]: 25.1 ↓ fold
Ki ([8]; pKi trans ± SEM, trans isomer): 0.501 nM

[3H]C([3H])([3H])N1CCC(n2nc(C)c(/N=N/c3ccc(O[C@H]4C[C@H](N5CCCCC5)C4)cc3)c2C)CC1 [[^3H]3f]
time at which binding to H3R reaches equilibrium ([9]; 0.5 nM trans state): 15 min
kon ([9]; PSS cis state (preilluminated trans-[3H]3f)): 217000 M⁻¹ s⁻¹
dissociation t 1/2 ([9]; PSS cis state, clobenpropit): 6.2 ± 0.2 min
dissociation t 1/2 ([9]; PSS cis state, clobenpropit, listed as [^3H]3f-PSS cis): 6.2 ± 0.4 min
koff ([9]; PSS cis state, dissociation initiated with clobenpropit): 0.00183 s⁻¹
Kd ([9]; PSS cis state): 12.6 nM
fold lower k on value compared to trans-[3H]3f ([9]; PSS cis versus trans): 10 fold
kon ([9]; trans state, 0.5 nM): 2.15e+06 M⁻¹ s⁻¹
dissociation t 1/2 ([9]; trans state, clobenpropit (10 μM)): 4.9 ± 0.4 min
koff ([9]; trans state, dissociation initiated with 10 μM clobenpropit): 0.0025 s⁻¹
Kd ([9]; trans state): 1.26 nM
H3R binding remaining after exposure to 365 nm light ([10]; prebound trans state 0.5 nM, no competitor present): approximately 0%
dissociation t 1/2 ([10]; prebound trans state, 365 nm light, t1/2 = ln 2/k off): 48 ± 12 s
fold faster dissociation kinetics upon 365 nm illumination ([10]; prebound trans, 365 nm light versus dissociation of dark trans-[3H]3f): 6.2 fold

c1nc(CC2CCNCC2)c[nH]1 [immepip, reference compound]
Ki [11]: 3.16 nM

c1cc(Cc2cnc[nH]2)ccn1 [immethridine, reference compound]
EC50 [12]: 0.794 nM
